The values that follow are results of earlier work, collected in patent US7141607B1, “Methods and compositions for treating and inhibiting retinal neovascularization” (Insite Vision Incorporated, priority 2000, dated 2006).

This series relates to retinal neovascularization. Conditions: IP injection on days 12, 14 and 16; same animal model.

Turning to `CNC(=O)[C@H](Cc1ccccc1)NC(=O)[C@H](CC(C)C)[C@H](CSc1cccs1)C(=O)NO` (relative stereo) [batimastat, [2-R-[1(S*),2R*,3S*]]-N^4-hydroxy-N^1-[2-(methylamino)-2-oxo-1-(phenylmethyl)ethyl]-2-(2-methylpropyl)-3-[(2-thienylthio)methyl]butanediamide], the reduction in neovascularization is recorded as 72%.
